In publication PMC6479814, “Structure-Based Design of Novel Benzimidazole Derivatives as Pin1 Inhibitors” (Molecules, 2019):
Like-named read-outs stand apart in the source and are kept apart here.

Legend:
[1] = molecular target: T1, Pin1 (Homo sapiens, UniProt Q13526); details: known Pin1 inhibitors, Figure 1; cited from earlier work
T1 construct: purchased Sino Biological Inc., Beijing, China

[2] = design: method as in PMID 29170140; details: in humans; cited from earlier work
[3] = test system: tumor cells; design: method as in PMID 19729306, PMID 20207139, PMID 25091930; details: result in words; cited from earlier work
[4] = test system: PC-3 cells; assay: In vitro anti-proliferative MTT assay; assay type: cell-based, human; details: Homo sapiens; PC-3 cells, MTT, 96 h
Method: As for Pin1 was overexpressed in human prostate cancer cells, the antiproliferative activity of these benzimidazole derivatives against PC-3 cells were further evaluated by MTT assay. Meanwhile, the polar surface area (PSA) of these compounds was calculated under the optimal conformation since PSA is the key indicator of membrane permeability.
The tested cells were plated in 96-well microtiter plates with a density of 2,000 cells/well and incubated in a humidified atmosphere with 5% CO2 at 37 °C for 24 h. The cells were then exposed to tested compounds of different concentrations in triplicate. After incubated for 96 h, 50 μL of 3-(4,5-dimethylthiazol-2-yl)-2,5-diphenyltetrazolium bromide (MTT) solution (2 mg/mL) was added to each well and incubated for an additional 4 h. Then the suspernatant was discarded and the fromazan was dissolved in 200 μL of dimethyl sulfoxide (DMSO). The plate was oscillated subtly at room temperature for 10 min before the absorbance was measured at 570 nm by a microplate reader. Cell inhibitory ratio was calculated with the following formula:Inhibitory Rate (%) = [(Acontrol − Atreated)/Acontrol] × 100%(1)
The GI50 was determined as the concentration that caused half inhibition of cell proliferation. All experiments were performed three times independently, and the results were reported presented as the mean.

[5] = molecular target: T1, Pin1; assay: Pin1 inhibition, protease-coupled assay; assay type: biochemical; details: 10 °C; for inhibition at 10 µM: Pin1, compound at 10 μM; for IC50: Pin1, protease-coupled assay
Method: To investigate the Pin1 inhibitory potency of all synthesized compounds, the inhibition ratio at 10 μM or IC50 of all synthesized compounds was determined using protease-coupled assay.
Pin1 inhibitory activities were measured at 10 °C by protease-coupled assay as reported previous. Suc-Ala-Glu-cis-Pro-Phe-4-nitroaniline (Bachem, Bubendorf, Switzerland) in 0.47 mol/L, LiCl/trifluoroethanol was used as the substrate. The assay buffer (860 μL of 35 mM HERES at pH 7.8), Pin1 (20 μL, Bought from Sino Biological Inc., Beijing, China) and target compounds (10 μL of varying comcentrations in DMSO) were pre-equilibtated in the cuvette at 10 °C for 30 min. Then, 150 uL of ice-cooled chymotrypsin (60 mg/mL in 0.001 M/HCl) was added and mixed immediately. Additional substrate (40 μL) was added to start the assay and the reaction was monitored by absorbance at 390 nm for 90 s. For each compound, four concentrations (10 μM, 3.3 μM, 1.1 μM, 0.37 μM) were chosen, and the assay was performed in duplicate. The data was analyzed by Graphpad Prism 6.0.

T1 sequence (Q13526 whole entry): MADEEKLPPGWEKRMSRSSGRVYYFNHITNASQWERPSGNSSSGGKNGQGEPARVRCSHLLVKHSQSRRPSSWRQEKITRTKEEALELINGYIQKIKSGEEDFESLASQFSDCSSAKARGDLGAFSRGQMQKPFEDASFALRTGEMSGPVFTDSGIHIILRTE

Compound	GI50 [4] [nM]	inhibition at 10 µM [5] [%]	IC50 [5] [nM]	melting point [°C]	IC50 [1] [nM]	half-life [2] [min]	antiproliferative activities against tumor cells [3]
Nc1nc(OCc2ccc(CNC(=O)C(F)(F)F)cc2)c2nc[nH]c2n1 [API-1]	–	–	–	–	70	–	–
CC1=C(/C=C/C(C)=C/C=C/C(C)=C/C(=O)O)C(C)(C)CCC1 [ATRA, all-trans retinoic acid]	–	–	–	–	–	45	–
O=Cc1nc2ccccc2[nH]1 [Compound 2]	–	–	–	–	–	–	did not exhibit antiproliferative activities

More lines, main results first:

GI50 [4] [nM]	inhibition at 10 µM [5] [%]	IC50 [5] [nM]	melting point [°C]	Compound	IC50 [1] [nM]	half-life [2] [min]	antiproliferative activities against tumor cells [3]
> 50000	99	370	178 to 180	O=C(CCn1c(-c2nc(C(=O)O)cs2)nc2ccccc21)Nc1cccc(C(F)(F)F)c1 [Compound 13g, 2-(1-(3-Oxo-3-((3-(trifluoromethyl)phenyl)amino)propyl)-1H-benzo[d]imidazol-2-yl)thiazole-4-carboxylic acid]	–	–	–
> 50000	81	1150	176 to 178	O=C(CCn1c(-c2nc(C(=O)O)cs2)nc2ccccc21)Nc1ccc(C(F)(F)F)cc1 [Compound 13h, 2-(1-(3-Oxo-3-((4-(trifluoromethyl)phenyl)amino)propyl)-1H-benzo[d]imidazol-2-yl)thiazole-4-carboxylic acid]	–	–	–
> 50000	80	1350	192 to 194	O=C(CCn1c(-c2nc(C(=O)O)cs2)nc2ccccc21)Nc1cc(Cl)cc(Cl)c1 [Compound 13i, 2-(1-(3-((3,5-Dichlorophenyl)amino)-3-oxopropyl)-1H-benzo[d]imidazol-2-yl)thiazole-4-carboxylic acid]	–	–	–
> 50000	72	–	204 to 206	Cc1ccc(NC(=O)CCn2c(-c3nc(C(=O)O)cs3)nc3ccccc32)cc1F [Compound 13j, 2-(1-(3-((3-Fluoro-4-methylphenyl)amino)-3-oxopropyl)-1H-benzo[d]imidazol-2-yl)thiazole-4-carboxylic acid]	–	–	–
